The structures appear in SMILES notation. Structures can show the parent of a compound that is named as a salt.

Series [1] can be described thus: Settling and resuspendability of drug suspensions after 7 days storage. As to conditions: for Settling: 7 days, dark, room temperature, scale 0-10, 10=none, 0=all at bottom; for Resuspendability: after 7 days, moderate shaking, scale 0-10, 10=perfectly homogenous. Type of series: physicochemical. The protocol: (§1) Suspensions of baclofen, bethanechol chloride, labetalol hydrochloride, verapamil hydrochloride, or ibuprofen were prepared in VE1 or OO. […] The wetted powder was incorporated into 50 ml VE1 or OO by geometric dilution and stored in individual non-opaque containers. […] The concentrations of the pharmaceutical compounds in suspension represent ‘typical’ prescribed preparations.
The suspensions were stored in the dark at room temperature for 7 days and then settling of the drugs and resuspendability of sedimented drug in OO or VE1 was evaluated. Settling and resuspendability of the drugs was rated on a subjective scale of 0-10: settling (how much product apparent at bottom of container, 10=none, 0=all); resuspendability (how homogenous does the product appear after moderate shaking, 10=perfectly homogenous, 0=not homogenous (heterogeneous)). Resuspendability of sedimented ingredients was evaluated after evaluation of settling. The suspensions were shaken deliberately (stepwise), with frequent inspections of the bottom of the container.

A short description of series [2]: Subjective rating of drug suspensions immediately after preparation (ease of preparation, homogeneity, viscosity). Type of series: physicochemical. As to conditions: for Homogeneity: scale 0-10, 0=drug settles completely and immediately, 10=consistently homogenous; for Viscosity: subjective scale 0-10, 0=water, 10=thick molasses; for phase separation of the suspending agent from the liquid phase: drug preparation in OO. The protocol:
as §1
The suspensions were evaluated immediately after preparation with respect to ease of preparation, homogeneity, and viscosity by the pharmaceutical technician preparing the suspensions. The suspensions were rated on a subjective scale of 0-10: ease of preparation, 0=difficult, 10=very easy; homogeneity, 0=drug settles completely and immediately, 10=consistently homogenous in appearance along the vertical axis; viscosity, 0=water, 10=thick molasses.

Where [3] appears, read: drug suspension in OO, listed as bethanechol chloride.
The mark [4] stands for this setting: drug suspension in OO, listed as ibuprofen.
The mark [5] stands for this setting: drug suspension in OO, hydrochloride.
Where [6] appears, read: drug suspension in OO, listed as verapamil hydrochloride, hydrochloride.

In series [1] (drug suspension in VE1), `NCC(CC(=O)O)c1ccc(Cl)cc1` (stereo not drawn) [Baclofen, baclofen] came in with a Settling of 8 and a Resuspendability of 9. In addition, in series [2] (drug suspension in OO), the Homogeneity was 9 and the Viscosity is 6. In series [2] (drug suspension in VE1), this compound gave a Homogeneity of 9 and a Viscosity of 7.
As to `CC(C[N+](C)(C)C)OC(N)=O` (stereo not drawn) [Bethanechol Chloride, bethanechol chloride], the Settling is 6 in series [1] (drug suspension in OO), “minimal to moderate sedimentation” in series [1] (setting [3]) and 8 in series [1] (drug suspension in VE1). Also, the Resuspendability was 9 in series [1] (drug suspension in OO), “easily resuspended” in series [1] (setting [3]) and 9 in series [1] (drug suspension in VE1). In addition, the Homogeneity in series [2] (drug suspension in OO) and in series [2] (drug suspension in VE1) was 9 in each case. The values for the Viscosity in series [2] (drug suspension in OO) and in series [2] (drug suspension in VE1) were 5 and 7, respectively.
`CC(C)Cc1ccc(C(C)C(=O)O)cc1` (stereo not drawn) [Ibuprofen, ibuprofen]: the Settling in series [1] (drug suspension in OO) is reported as 7; in series [1] (setting [4]), “minimal to moderate sedimentation”; in series [1] (drug suspension in VE1), 8. In addition, the results for the Resuspendability in series [1] (drug suspension in OO), in series [1] (setting [4]) and in series [1] (drug suspension in VE1) were 9, “easily resuspended” and 9, respectively. Also, the Homogeneity in series [2] (drug suspension in OO) and in series [2] (drug suspension in VE1) was 9 in each case. In addition, the Viscosity turned out to be 4 in series [2] (drug suspension in OO) and 7 in series [2] (drug suspension in VE1).
With `CC(CCc1ccccc1)NCC(O)c1ccc(O)c(C(N)=O)c1` (stereo not drawn) [Labetalol Hydrochloride, labetalol hydrochloride], the Settling in series [1] (setting [5]) is listed as 2; in series [1] (drug suspension in OO, listed as labetalol hydrochloride, hydrochloride) it was “large portion”; in series [1] (drug suspension in VE1) it was 9. For the same compound, the Resuspendability in series [1] (setting [5]) is 3; in series [1] (drug suspension in OO, listed as Labetalol hydrochloride, hydrochloride) it was “more difficult to resuspend”; in series [1] (drug suspension in VE1) it was 9. In addition, the “phase separation of the suspending agent from the liquid phase” value in series [2] is reported as “phase separation”. In addition, the figures for the Homogeneity in series [2] (drug suspension in OO) and in series [2] (drug suspension in VE1) were 3 and 9, respectively. The Viscosity was found to be 1 in series [2] (drug suspension in OO) and 7 in series [2] (drug suspension in VE1).
Consider `COc1ccc(CCN(C)CCCC(C#N)(c2ccc(OC)c(OC)c2)C(C)C)cc1OC` (stereo not drawn) [Verapamil Hydrochloride, verapamil hydrochloride], for which the Settling in series [1] (setting [5]) is 2; in series [1] (setting [6]), “large portion”; in series [1] (drug suspension in VE1) it was 7. The results for the Resuspendability in series [1] (setting [5]), in series [1] (setting [6]) and in series [1] (drug suspension in VE1) were 6, “more difficult to resuspend” and 9, respectively. In addition, in series [2], the “phase separation of the suspending agent from the liquid phase” value was “phase separation”. Moreover, the values for the Homogeneity in series [2] (drug suspension in OO) and in series [2] (drug suspension in VE1) were 8 and 9, respectively. Moreover, the results for the Viscosity in series [2] (drug suspension in OO) and in series [2] (drug suspension in VE1) were 2 and 7, respectively.

The values are drawn from patent US8986729B2, “Palatable suspending vehicle for pharmaceutical ingredients” (Fagron, Inc., priority 2004, dated 2015).
